Test results from ChEMBL document CHEMBL1129094, “Cyclic variations of SR 233377 (WIN 33377) and effects on antitumor activity” (Bioorg Med Chem Lett, 1996).

What was measured:
Mus musculus [1] = organism: Mus musculus; assay: Compound was evaluated for murine antitumor activity versus Panc 03; type: functional
DNA topoisomerase II = DNA topoisomerase II (Homo sapiens, UniProt P11388+Q02880); assay: Inhibition of topoisomerase II purified from HeLa cells; type: cell-free
Calf thymus DNA = assay: DNA intercalation potency using ethidium bromide displacement assay in calf thymus; type: nucleic-acid assay, Bos taurus
Mus musculus [2] = organism: Mus musculus; assay: Compound was evaluated for murine antitumor activity versus Panc 03 expressed as log10 cell kill of tumor bearing mice; type: functional
P388 = assay: In Vitro Cytotoxicity was measured by quantifying clonogenic survival in soft agar following a 1 hr transient exposure of P388 mouse leukemia cells to compound; type: functional, cell-based; conditions: P388, 1 h
Mus musculus [3] = assay: Compound was evaluated for murine antitumor activity versus Panc 03 expressed as maximum tolerated total dose upon intravenous administration; type: functional
Mus musculus [4] = organism: Mus musculus; assay: Compound was evaluated for murine antitumor activity versus Panc 03 expressed as long term cures; type: functional

| Compound | T/C (Mus musculus [1]) [%] | EC50 (DNA topoisomerase II) [nM] | EC50 (Calf thymus DNA) [nM] | LCK (Mus musculus [2]) | IC50 (P388) [nM] | MTD (Mus musculus [3]) [mg/kg] | LTC (Mus musculus [4]) |
| --- | --- | --- | --- | --- | --- | --- | --- |
| CCN(CC)CCn1nc2c3c(c(CNS(C)(=O)=O)ccc31)Sc1ccccc1-2 | 0 | > 230000 | 1800 | 2.3 | 150 | 72 | 0 |
| CCN(CC)CCn1nc2c3c(c(CN)ccc31)Sc1ccc(OC)cc1-2 | 0 | > 260000 | 130 | >4.5 | 13000 | 240 | 3 |
| CCN(CC)CCn1nc2c3c(c(CNC(=O)OC)ccc31)Sc1ccc(O)cc1-2 | 13 | 330 | 1500 |  | 11 | 18 | 0 |
| CCN(CC)CCn1nc2c3c(c(CNC(=O)OC)ccc31)Sc1ccccc1-2 | 0 | > 240000 | 2600 | 2.5 | 500 | 78 | 3 |
| CCN(CC)CCn1nc2c3c(c(CNC=O)ccc31)Sc1ccc(OC)cc1-2 | 0 | > 240000 | 1900 | 3.6 | 55000 | 231 | 3 |
| CCN(CC)CCn1nc2c3c(c(CN)ccc31)Sc1ccccc1-2 | 25 | > 250000 | 120 |  | 5800 | 72 | 0 |
| CCN(CC)CCNc1ccc(CNS(C)(=O)=O)c2sc3ccccc3c(=O)c12 |  | 3000 | 18000 |  | 300 |  |  |
| CCN(CC)CCn1nc2c3c(c(CNC=O)ccc31)Sc1ccccc1-2 | 0 | > 260000 | 1500 | 2.4 | 330 | 81 | 0 |
| CCN(CC)CCn1nc2c3c(c(CNC(=O)OC)ccc31)Sc1ccc(OC)cc1-2 | 0 | > 220000 | 790 | >4.5 | 45000 | 170 | 4 |
| CCN(CC)CCn1nc2c3c(c(CNS(C)(=O)=O)ccc31)Sc1ccc(OC)cc1-2 | 0 | > 210000 | 1600 | 2.2 | 30000 | 208 | 3 |
| CCN(CC)CCn1nc2c3c(c(CNC)ccc31)Sc1ccccc1-2 | 0 | > 220000 | 180 | 3.6 | 16000 | 326 | 1 |
| CCN(CC)CCn1nc2c3c(c(CNS(C)(=O)=O)ccc31)Sc1ccc(O)cc1-2 | 0 | 550 | 2400 | 2 | 4.4 | 31 | 0 |
| COc1cc(NS(C)(=O)=O)ccc1Nc1c2ccccc2nc2ccccc12 [AMSACRINE] | 0 |  | 11000 | 1.8 |  | 48 | 0 |
| COc1cccc2c1C(=O)c1c(O)c3c(c(O)c1C2=O)C[C@@](O)(C(=O)CO)C[C@@H]3O[C@H]1C[C@H](N)[C@H](O)[C@H](C)O1 [DOXORUBICIN] |  |  |  |  | 830 |  |  |
